Data reported in US9908848B2, “Amide derivatives of lactam based N-acylethanolamine acid amidase (NAAA) inhibitors” (The Regents of the University of California, priority 2013, dated 2018).

Experiments:
[1] = biological target: T1, Rat AC (r-AC), Acid Ceramidase (Rattus norvegicus, UniProt Q6P7S1); experiment: Rat AC (r-AC) assay, UPLC/MS; assay type: biochemical; conditions: read-out: r-AC UPLC/MS assay % inhib.
T1 construct: V5 (C); His (C); made in house; host or cells: HEK293 cells transfected with pEF6-rAC-V5/His, selected with G418; soluble fraction after freeze/thaw
T1 sequence (Q6P7S1 21-394): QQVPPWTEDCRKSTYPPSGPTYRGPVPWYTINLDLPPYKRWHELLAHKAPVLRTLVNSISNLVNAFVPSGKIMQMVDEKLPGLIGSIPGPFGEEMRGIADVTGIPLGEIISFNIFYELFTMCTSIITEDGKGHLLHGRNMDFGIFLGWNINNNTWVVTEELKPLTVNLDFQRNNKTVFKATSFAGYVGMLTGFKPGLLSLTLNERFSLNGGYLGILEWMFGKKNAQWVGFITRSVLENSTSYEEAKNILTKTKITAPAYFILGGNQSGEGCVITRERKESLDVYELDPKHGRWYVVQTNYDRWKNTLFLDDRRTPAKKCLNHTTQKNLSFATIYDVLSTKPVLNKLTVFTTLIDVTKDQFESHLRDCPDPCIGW
Procedure: The selectivity of selected compounds versus Acid Ceramidase (AC) was determined.
Rat AC (r-AC) was cloned from a brain cDNA library using primers based on the sequence obtained from the National Center for Biotechnology Information (NCBI) database: 5′rAC (5′-GACCATGCTGGGCCGTAGT-3′) (SEQ ID NO:1) and 3′rAC (5′-CCAGCCTATACAAGGGTCT-3′) (SEQ ID NO:2). The PCR (High Fidelity PCR Master, Roche) product was subcloned into a pEF6-V5/His vector (Invitrogen) to construct a mammalian expression vector encoding V5/His-tagged rat AC. HEK293 cells were transfected with pEF6-rAC-V5/His using Super-Fect reagent (Qiagen) and screened with G418 (0.3 mg/mL). Cells were suspended in 20 mM Tris HCl (pH 7.5) containing 0.32M sucrose, sonicated and centrifuged at 800×g for 15 min at 4° C. The supernatants were centrifuged again at 12,000×g for 30 min at 4° C. The pellets were suspended in phosphate-buffered saline (PBS) and subjected to 2 freeze-thaw cycles at −80° C. The suspensions were centrifuged at 105,000×g for 1 hour at 4° C. The supernatants containing recombinant AC were kept at −80° C. until use. Protein concentration was measured using the bicinchoninic acid (BCA) assay (Pierce). Recombinant rat AC (50 μg) was preincubated with inhibitors (final DMSO concentration 1%) in assay buffer (100 mM sodium phosphate, 0.1% Nonidet P-40, 150 mM NaCl, 3 mM DTT, 100 mM sodium citrate, pH 4.5) for 30 min at 37° C. Reactions were started by the addition of 100 μM N-lauroyl ceramide (Nu-Chek Prep, Elysian, Minn.) and carried on for 30 min at 37° C. Reactions were stopped by addition of a mixture of chloroform/methanol (2:1, vol/vol) containing 1 nmol of heptadecanoic acid (HDA; NuChek Prep). The organic phases were collected, dried under N2, and analyzed by LC-MS in the negative-ion mode using […] (HDA) as internal standard (m/z=199 for lauric acid, m/z=269 for HDA). HDA was eluted on an XDB Eclipse C18 column isocratically at 2.2 mL/min for 1 min with a solvent mixture of 95% methanol and 5% water, both containing 0.25% acetic acid and 5 mM ammonium acetate. The column temperature was 50° C. Electrospray ionization (ESI) was in the negative mode, capillary voltage as 4 kV, and fragmentor voltage was 100 V. N2 was used as drying gas at a flow rate of 13 L/min and a temperature of 350° C. Nebulizer pressure was set at 60 psi. We monitored […] in the selected-ion monitoring (SIM) mode using HDA as internal standard. Calibration curves were generated using commercial lauric acid (Nu-Chek Prep; m/z=199).

human NAAA = biological target: T2, human NAAA (Homo sapiens, UniProt Q02083); experiment: Fluorogenic h-NAAA assay; assay type: biochemical; conditions: recombinant HEK-hNAAA preparation
T2 construct: made in house; host or cells: HEK293 cells, stably transfected; soluble fraction after freeze/thaw
T2 sequence (Q02083 29-359): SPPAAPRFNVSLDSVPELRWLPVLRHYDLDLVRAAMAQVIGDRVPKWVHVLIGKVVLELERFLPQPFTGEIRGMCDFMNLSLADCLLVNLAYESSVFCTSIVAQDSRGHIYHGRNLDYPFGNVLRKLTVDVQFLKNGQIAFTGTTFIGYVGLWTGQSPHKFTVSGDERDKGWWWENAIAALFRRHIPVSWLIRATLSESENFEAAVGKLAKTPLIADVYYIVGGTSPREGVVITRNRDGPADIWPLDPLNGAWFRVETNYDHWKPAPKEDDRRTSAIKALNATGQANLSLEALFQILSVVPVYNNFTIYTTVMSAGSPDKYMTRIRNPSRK
Procedure: Hek293 cells stably transfected with the human NAAA coding sequence cloned from a human spleen cDNA library were used as enzyme source. Recombinant HEK-hNAAA pellets were resuspended in homogenizing buffer, and sonicated. Samples were centrifuged at 800×g for 15 min at 4° C. and the supernatants were ultracentrifuged at 12,000×g for 30 min at 4° C. The pellets were resuspended in PBS pH 7.4 on ice and subjected to a freeze/thaw cycle at −80° C. (two freeze/thaw cycles at −80° C. for Examples 34-37). The suspension was finally centrifuged at 105,000×g for 1 h at 4° C. Protein concentration was measured and samples stored at −80° C. until use.
The assay was run in Optiplate 96-wells black plates, in a total reaction volume of 200 μL. NAAA protein preparation (4.0 μg for Examples except 34-37, which were 20.0 μg) was pre-incubated for 10 min with various concentrations of test compounds or vehicle control (5% DMSO) in 100 mM citrate/phosphate buffer (pH 4.5) containing 3.0 mM DTT, 0.1% Triton X-100, 0.05% BSA, 150 mM NaCl. N-(4-methyl-2-oxo-chromen-7-yl)-hexadecanamide was used as a substrate (5.0 μM) and the reaction carried over for 30 min at 37° C. The samples were then read in a Perkin Elmer Envision plate reader using an excitation wavelength of 360 nm and emission 460 nm. IC50 values were calculated by non-linear regression analysis of log [concentration]/inhibition curves using GraphPad Prism 5 (GraphPad Software Inc., CA—USA) applying a standard slope curve fitting.

Compound	inhibition at 1 µM [1] [%]	IC50 (human NAAA) [nM]
CCCCCCCCC(=O)N[C@H]1CNC1=O [Example 3, N-[(3S)-2-Oxoazetidin-3-yl]-nonanamide]	25	108
O=C(CCCCCCc1ccccc1)N[C@H]1CNC1=O [Example 7, 7-Phenyl-N-[(3S)-2-Oxoazetidin-3-yl]-heptanamide]	25	334
